In US20100113430A1, “THIOXANTHENE DERIVATES USEFUL TO TREAT INFECTIOUS DISEASES” (BKG PHARMA APS, priority 2007, published 2010):
Converted amounts (≈) assume the structure as drawn.

Legend:
Format in all cases: cell-based
[1] = tested on: Candida albicans clinical isolate; assay: MIC (90% growth inhibition), broth microdilution NCCLS M27-A, Candida albicans; conditions: strain 1. Candida albicans FR (fluconazole resistant)
Experimental: (§1) Cell growth was tested using the Minimal Inhibitory Concentration (MIC) susceptibility tests by use of the microdilution broth method in accordance to the NCCLS Guidelines (NCCLS Guidelines, Methods for Dilution Antimicrobial Susceptibility Tests for Bacteria That Grow Aerobically; Approved Standard, Sixth Edition, Volume 23; Number 2). The minimum inhibitory concentration (MIC), is defined ad the lowest concentration of drug which inhibits growth of the test organism, in the sense that no visible growth is detected (total inhibition of growth). In example 2 MIC of the compounds used on fungal microorganisms was determined from the IC90 measurements according to NCCLS Guidelines.
The antibacterial effect of demethylated/dealkylated phenothiazine or thioxanthene compounds were studied by growth inhibition studies exposing cells to 0-32 μg/ml of drug. Each experiment was repeated in triplicate. MIC values represent the mean values of two separate triplicate experiments.
4 clinical isolates of Candida sp. (including 3 fluconazole resistant isolates) were subcultured for 24 h on Sabouraud glucose agar before susceptibility testing. Broth microdilution tests were performed according to NCCLS document M27-A (Ref: National Committee for Clinical Laboratory Standards. (1997). Reference Method for Broth Dilution Antifungal Susceptibility Testing of Yeasts: Approved Standard M27-A. NCCLS, Wayne, Pa.). Microtitre plates were read spectrophotometrically at 530 nm, after mixing the wells by pipetting to resuspend yeast sediments. In this experiment, the MIC was defined as the lowest drug dilution resulting in 90% growth inhibition.

[2] = tested on: Gram negative sp.; assay: MIC/IC90 broad spectrum, Gram negative sp.; conditions: 25 strains, 20 resistant
Experimental: as §1
A log phase culture of bacteria was diluted with fresh pre-warmed Mueller-Hinton medium and adjusted to a defined OD at 600 nm in order to give a final concentration of 1×10^4-5 bacteria/ml medium. The bacterial culture was transferred to microtiter-plates and culture was added to each well. Drug was added to the bacterial culture in the wells as two-fold dilution series of drug in order to give final concentrations ranging from 0.03 to 128 μg/ml. Trays were incubated at 37° C. by shaking in a robot analyzer, PowerWavex, software KC^4′ Kebo.Lab, Copenhagen, for 16 h and optical densities were measured at 600 nm during the incubation time in order to record growth curves. Wells containing bacterial culture without drug were used as controls to ensure correct inoculum size and bacterial growth during the incubation. Cultures were tested in order to detect contaminations. Each experiment was repeated in triplicate. MIC values represent the mean values of two separate triplicate experiments. Intra- and interassay variation was <5%.
Inhibition 90 (IC90) is defined as: OD responding a 90% growth inhibition.
A broad spectrum of bacteria were cultured and assayed as described above for susceptibility towards N-dealkyl-clopenthixol.

[3] = tested on: uninfected MT4 cells; assay: Cytotoxic effect in uninfected MT4 cultures; conditions: six days
Experimental: Compounds were examined for possible antiviral activity against strain IIIB of HIV-1 using MT4 cells as target cells. MT4 cells were incubated with virus (0.005 MOI) and growth medium containing the test dilutions of compound(s) for six days in parallel with virus-infected and uninfected control cultures without compound added. Expression of HIV in the cultures was indirectly quantified using the MTT assay as previously described. Compounds mediating less than 30% reduction of HIV expression were considered without biological activity. Compounds were tested in parallel for cytotoxic effect in uninfected MT4 cultures containing the test dilutions of compound as described above. Cultures for test of both antiviral activity and cytotoxic effect were set up in triple duplicates, 200 ml per culture in micro titre plates. A 30% inhibition of cell growth relative to control cultures was considered significant. The 50% inhibitory concentration was determined by interpolation from the plots of percent inhibition versus concentration of compound. CC50 is defined as the inhibitory concentration that reduces cellular growth or viability of uninfected cells by 50%.

Structure (SMILES): Clc1ccc2c(c1)/C(=C/CCN1CCNCC1)c1ccccc1S2 [N-dealkyl-trans-clopenthixol, trans-1-(3-(2-chloro-thioxanthen-9-ylidene)propyl)piperazine]
- MIC [1]: 1 µg/mL (≈ 2.8 µM)
- MIC (mean) [2]: 2 µg/mL (≈ 5.6 µM)
- MIC range [2]: 0.5 to 2 µg/mL
- CC50 [3]: > 3000 nM
